Measurements: patent US4661499A, “2-[(substituted)-phenoxymethyl]quinolines” (Merck Frosst Canada, Inc., priority 1985, dated 1987)

Tested on: LTB4 formation
Test: Rat Peritoneal Polymorphonuclear (PMN) Leukocyte Assay (leukotriene inhibitor assay)
Assay type: cell-based
Settings: A-23187 10 μM
Method: For example, 2-[4-(1-hydroxyhexylphenoxymethyl)]quinoline (see Example 1) was compared to its 3-(1-hydroxyhexylphenoxymethyl) analog in the PMN (leukotriene inhibitor) assay.
Rats under ether anesthesia are injected (i.p.) with 8 ml of a suspension of sodium cascinate (6 grams in ca. 50 ml water). After 15-24 hr. the rats are sacrificed (CO2) and the cells from the peritoneal cavity are recovered by lavage with 20 ml of buffer (Eagles MEM containing 30 mM HEPES adjusted to pH 7.4 with NaOH). The cells are pelleted (350×g, 5 min.), resuspended in buffer with vigorous shaking, filtered, through lens paper, recentrifuged and finally suspended in buffer at a concentration of […]. A 500 μl aliquot of PMN suspension and test compound are preincubated for 2 minutes at 37° C., followed by the addition of 10 μM A-23187. The suspension is stirred for an additional 4 minutes then bioassayed for […] content by adding an aliquot to a second 500 μl portion of the PMN at 37° C. The LTB4 produced in the first incubation causes aggregation of the second PMN, which is measured as a change in light transmission. The size of the assay aliquot is chosen to give a submaximal transmission change (usually -70%) for the untreated control. The percentage inhibition of LTB4 formation is calculated from the ratio of transmission change in the sample to the transmission change in the compound-free control.

| Structure (SMILES) | % Inhibition of LTB4 formation (0.0016 μg/ml) | % Inhibition of LTB4 formation (0.008 μg/ml) | % Inhibition of LTB4 formation (0.04 μg/ml) | % Inhibition of LTB4 formation (0.2 μg/ml) | % Inhibition of LTB4 formation (1 μg/ml) | % Inhibition of LTB4 formation (5 μg/ml) |
| --- | --- | --- | --- | --- | --- | --- |
| CCCCCC(O)c1ccc(OCc2ccc3ccccc3n2)cc1 (centres unmarked) [Example 1] | 15% | 49% | 89% | 100% | 100% | 100% |
| CCCCCC(O)c1cccc(OCc2ccc3ccccc3n2)c1 (centres unmarked) [Example 3-Analog, reference compound] |  | -1% | 39% | 100% | 100% | 100% |
